# PubChem BioAssay (NCI)
#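 Following 48 hours of exposure in 96-well plates, responses at five concentrations were used to interpolate endpoints linearly. GI50 = concentration required for 50% inhibition of growth. TGI is the concentration that stops growth completely.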
# Experiments:
# Experiment in all cases: NCI tumour cell line growth inhibition, 48 h
# UACC-62 melanoma = tested on: UACC-62 melanoma
# SN12C renal = tested on: SN12C renal
# OVCAR-8 ovarian = tested on: OVCAR-8 ovarian
# SR leukemia = tested on: SR leukemia
# 786-0 renal = tested on: 786-0 renal
# EKVX NSCLC = tested on: EKVX NSCLC
# RPMI-8226 leukemia = tested on: RPMI-8226 leukemia
# SK-OV-3 ovarian = tested on: SK-OV-3 ovarian
# UO-31 renal = tested on: UO-31 renal
# A549 NSCLC = tested on: A549 NSCLC
SMILES,TGI (UACC-62 melanoma) [µM],TGI (SN12C renal) [µM],TGI (OVCAR-8 ovarian) [µM],TGI (SR leukemia) [µM],TGI (786-0 renal) [µM],TGI (EKVX NSCLC) [µM],TGI (RPMI-8226 leukemia) [µM],TGI (SK-OV-3 ovarian) [µM],TGI (UO-31 renal) [µM],TGI (A549 NSCLC) [µM],GI50 (OVCAR-8 ovarian) [µM],GI50 (SR leukemia) [µM],GI50 (786-0 renal) [µM],GI50 (EKVX NSCLC) [µM],GI50 (RPMI-8226 leukemia) [µM],GI50 (SK-OV-3 ovarian) [µM],GI50 (UO-31 renal) [µM],GI50 (A549 NSCLC) [µM],GI50 (UACC-62 melanoma) [µM],GI50 (SN12C renal) [µM]
COc1cccc(NC(=O)CC(=O)N2N=C(N3c4ccccc4Sc4ccccc43)CC2c2ccccc2)c1 (centres undefined),> 100,> 100,> 100,> 100,> 100,> 100,> 100,> 100,> 100,> 100,–,–,–,–,–,–,–,–,–,–
CN(C)C(=O)c1cnc2oc3ccc(O)cc3c2c1-c1ccccc1,–,–,> 25,> 25,> 25,> 25,> 25,> 25,> 25,> 25,> 25,3.78,> 25,> 25,> 25,24.6,20.5,> 25,–,–
Cc1ccc(C(=O)NC2CCC2)cc1-c1ccc(C(=O)NCC2CC2)cc1,> 25,> 25,> 25,> 25,> 25,> 25,> 25,> 25,> 25,> 25,> 25,> 25,> 25,> 25,> 25,> 25,> 25,> 25,> 25,> 25
NCCN.O=C([O-])CN1CCOCC1.[OH-].[Pt+4],> 100,> 100,> 100,> 100,> 100,> 100,–,> 100,> 100,> 100,> 100,> 100,> 100,> 100,–,> 100,> 100,> 100,> 100,> 100
Cc1nn(-c2ccc(Cl)cc2)c2nc3c(nc12)C(=O)C(=O)c1ccccc1-3,34.4,12.6,> 100,> 100,25.9,> 100,> 100,> 100,7.14,4.08,21.7,7.28,5.39,7.36,5.65,> 100,1.82,2.06,8.45,2.7
Cc1nn(-c2ccc([N+](=O)[O-])cc2)c2ncnc(N/N=C/c3ccccc3O)c12,3.76,3.17,–,–,3.41,> 100,> 100,> 22.1,–,5.41,–,0.166,0.539,2.41,0.619,0.497,–,0.563,0.986,0.399
C=C1c2ccoc2C[C@H]2[C@H]1CC[C@@]1(O)[C@@](C)(C(=O)OC)CCC[C@]21C,30.7,34,> 100,31.6,> 100,> 100,54,> 100,> 100,> 100,> 100,13.1,40.1,37,21.5,> 100,33.9,25.5,13.7,16.9
